Reference: patent US20250230147A1, “LACTAMS AS CBL-B INHIBITORS” (Genentech, Inc., priority 2021, published 2025)
Structures can show the parent of a compound that is named as a salt.

Tests used:
Cbl-b = Cbl-b (Homo sapiens (Human), UniProt Q13191); test: Cbl-b LCK Ub TR-FRET assay (Cbl-b Lck HTRF); type: biochemical
In short: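 TR-FRET (340 nm excitation, 615/665 nm emission) read after adding HA-ubiquitin–UBE2D2 thioester, anti-HA-D2 and streptavidin-Eu. Beforehand, compounds incubated 60 min with biotinylated Cbl-b, then 90 min with His-LCK and ATP (1 mM in 2× mix); IC50 from 10 concentrations, DMSO high and no-LCK low controls.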

c-Cbl = c-Cbl (Homo sapiens (Human), UniProt P22681); test: C-Cbl LCK Ub TR-FRET assay (c-cbl Lck HTRF); type: biochemical; settings: for (fold-selectivity): C-cbl Lck HTRF IC50 relative to Cbl-b Lck HTRF IC50
In short: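 Signal is read once the detection mix has stood 20 min at ambient temperature. Curves are anchored by DMSO as maximum and by omission of LCK as minimum.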

Sequence of c-Cbl (P22681 47-435): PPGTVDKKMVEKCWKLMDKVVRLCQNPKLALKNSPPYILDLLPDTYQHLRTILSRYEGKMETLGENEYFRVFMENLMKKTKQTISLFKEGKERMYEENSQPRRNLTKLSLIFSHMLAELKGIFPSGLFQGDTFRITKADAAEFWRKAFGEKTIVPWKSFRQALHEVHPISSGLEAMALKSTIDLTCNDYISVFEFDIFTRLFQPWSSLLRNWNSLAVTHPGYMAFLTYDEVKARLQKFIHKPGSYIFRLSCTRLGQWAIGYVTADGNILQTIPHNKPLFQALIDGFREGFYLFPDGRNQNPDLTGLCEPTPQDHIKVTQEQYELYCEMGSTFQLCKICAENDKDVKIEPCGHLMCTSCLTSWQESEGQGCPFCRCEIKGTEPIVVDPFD
Sequence of Cbl-b (Q13191 40-426): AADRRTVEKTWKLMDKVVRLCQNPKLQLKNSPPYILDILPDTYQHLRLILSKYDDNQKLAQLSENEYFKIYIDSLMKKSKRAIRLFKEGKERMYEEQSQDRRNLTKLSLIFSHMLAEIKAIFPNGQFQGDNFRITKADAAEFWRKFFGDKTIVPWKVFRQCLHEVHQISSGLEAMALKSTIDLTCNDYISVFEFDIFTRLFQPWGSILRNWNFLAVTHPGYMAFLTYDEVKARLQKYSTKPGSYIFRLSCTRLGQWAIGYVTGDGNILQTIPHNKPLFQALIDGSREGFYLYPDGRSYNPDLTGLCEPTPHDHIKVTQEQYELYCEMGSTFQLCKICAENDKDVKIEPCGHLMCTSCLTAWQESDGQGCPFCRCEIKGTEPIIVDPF

CC(C)[C@H]1CN(C)CCN1Cc1cc2c(c(C(F)(F)F)c1)CN(c1cc(C3(Cc4nncn4C)CCC3)cc(C#N)n1)C2=O [Compound 299, (S)-6-(6-((2-isopropyl-4-methylpiperazin-1-yl)methyl)-1-oxo-4-(trifluoromethyl)isoindolin-2-yl)-4-(1-((4-methyl-4H-1,2,4-triazol-3-yl)methyl)cyclobutyl)picolinonitrile]
IC50 (Cbl-b): 0.011 µM
IC50 (c-Cbl): 0.0054 µM
(fold-selectivity) (c-Cbl): (0.50x)

Cn1cnnc1[C@H](F)C1(c2cccc(N3Cc4c(cc(CNC5(C)CCC5)cc4C(F)(F)F)C3=O)c2)CC(F)(F)C1 [Compound 464, (R)-2-(3-(3,3-difluoro-1-(fluoro(4-methyl-4H-1,2,4-triazol-3-yl)methyl)cyclobutyl)phenyl)-6-(((1-methylcyclobutyl)amino)methyl)-4-(trifluoromethyl)isoindolin-1-one]
IC50 (Cbl-b): 0.012 µM
IC50 (c-Cbl): 0.012 µM
(fold-selectivity) (c-Cbl): (1.0x)

Cn1cnnc1[C@H](F)C1(c2cccc(N3Cc4c(cc(CNCCCF)cc4C(F)(F)F)C3=O)c2)CC(F)(F)C1 [Compound 447, (R)-2-(3-(3,3-difluoro-1-(fluoro(4-methyl-4H-1,2,4-triazol-3-yl)methyl)cyclobutyl)phenyl)-6-(((3-fluoropropyl)amino)methyl)-4-(trifluoromethyl)isoindolin-1-one]
IC50 (Cbl-b): 0.016 µM
IC50 (c-Cbl): 0.02 µM
(fold-selectivity) (c-Cbl): (1.2x)

Cn1cnnc1[C@@H](F)C1(c2cccc(N3Cc4c(cc(CN)cc4C(F)(F)F)C3=O)c2)CCC1 [Compound 387, (S)-6-(aminomethyl)-2-(3-(1-(fluoro(4-methyl-4H-1,2,4-triazol-3-yl)methyl)cyclobutyl)phenyl)-4-(trifluoromethyl)isoindolin-1-one]
IC50 (Cbl-b): 0.058 µM
IC50 (c-Cbl): 0.053 µM
(fold-selectivity) (c-Cbl): (0.91x)

CCNCc1cc2c(c(C(F)(F)F)c1)CN(c1cccc(C3([C@@H](F)c4nncn4C)COC3)c1)C2=O [Compound 213, (R)-6-((ethylamino)methyl)-2-(3-(3-(fluoro(4-methyl-4H-1,2,4-triazol-3-yl)methyl)oxetan-3-yl)phenyl)-4-(trifluoromethyl)isoindolin-1-one]
IC50 (Cbl-b): 0.038 µM
IC50 (c-Cbl): 0.061 µM
(fold-selectivity) (c-Cbl): 1.6x

CC(C)[C@H]1CN(C)CCN1Cc1cc2c(c(C(F)(F)F)c1)CN(c1cc(C3([C@H](F)c4nncn4C)CCC3)cc(NCCO)n1)C2=O [Compound 234, 2-(4-(1-((S)-fluoro(4-methyl-4H-1,2,4-triazol-3-yl)methyl)cyclobutyl)-6-((2-hydroxyethyl)amino)pyridin-2-yl)-6-(((S)-2-isopropyl-4-methylpiperazin-1-yl)methyl)-4-(trifluoromethyl)isoindolin-1-one]
IC50 (Cbl-b): 0.0072 µM
IC50 (c-Cbl): 0.0085 µM
(fold-selectivity) (c-Cbl): (1.2x)

CC(C)[C@H]1CN(C)CCN1Cc1cc2c(c(C(F)(F)F)c1)CN(c1cccc(C3([C@H](F)c4nncn4C4CCCCC4)COC3)c1)C2=O [Compound 455, 2-(3-(3-((S)-(4-cyclohexyl-4H-1,2,4-triazol-3-yl)fluoromethyl)oxetan-3-yl)phenyl)-6-(((S)-2-isopropyl-4-methylpiperazin-1-yl)methyl)-4-(trifluoromethyl)isoindolin-1-one]
IC50 (Cbl-b): 4.4 µM
IC50 (c-Cbl): 3.1 µM
(fold-selectivity) (c-Cbl): (0.70x)

CC(C)[C@H]1CNCCN1Cc1cc2c(c(C(F)(F)F)c1)CN(c1cccc(C3([C@H](F)c4nncn4C)COC3)c1)C2=O [Compound 97, 2-(3-(3-((S)-fluoro(4-methyl-4H-1,2,4-triazol-3-yl)methyl)oxetan-3-yl)phenyl)-6-(((S)-2-isopropylpiperazin-1-yl)methyl)-4-(trifluoromethyl)isoindolin-1-one]
IC50 (Cbl-b): 0.02 µM
IC50 (c-Cbl): 0.038 µM
(fold-selectivity) (c-Cbl): 1.9x

Cn1cnnc1[C@H](F)C1(c2cccc(N3Cc4c(cc(Oc5cn[nH]c5)cc4C(F)(F)F)C3=O)c2)COC1 [Compound 116, (R)-6-((1H-pyrazol-4-yl)oxy)-2-(3-(3-(fluoro(4-methyl-4H-1,2,4-triazol-3-yl)methyl)oxetan-3-yl)phenyl)-4-(trifluoromethyl)isoindolin-1-one]
IC50 (Cbl-b): 0.31 µM
IC50 (c-Cbl): 0.33 µM
(fold-selectivity) (c-Cbl): 1.1x

Cn1cnnc1[C@H](F)C1(c2cccc(N3Cc4c(cc(CN5CCC56COC6)cc4C(F)(F)F)C3=O)c2)COC1 [Compound 175, (R)-6-(6-oxa-1-azaspiro[3.3]heptan-1-ylmethyl)-2-(3-(3-(fluoro(4-methyl-4H-1,2,4-triazol-3-yl)methyl)oxetan-3-yl)phenyl)-4-(trifluoromethyl)isoindolin-1-one]
IC50 (Cbl-b): 0.15 µM
IC50 (c-Cbl): 0.35 µM
(fold-selectivity) (c-Cbl): 2.5x

CC(C)Nc1cc(C2(Cc3nncn3C)CCC2)cc(N2Cc3c(cc(CN4CCN(C)C[C@@H]4C(C)C)cc3C(F)(F)F)C2=O)n1 [Compound 409, (S)-6-((2-isopropyl-4-methylpiperazin-1-yl)methyl)-2-(6-(isopropylamino)-4-(1-((4-methyl-4H-1,2,4-triazol-3-yl)methyl)cyclobutyl)pyridin-2-yl)-4-(trifluoromethyl)isoindolin-1-one]
IC50 (Cbl-b): 0.012 µM
IC50 (c-Cbl): 0.0059 µM
(fold-selectivity) (c-Cbl): (0.48x)

C[C@@H](N)c1cc2c(c(C(F)(F)F)c1)CN(c1cccc(C3([C@@H](F)c4nncn4C)COC3)c1)C2=O [Compound 191, 6-((R)-1-aminoethyl)-2-(3-(3-((R)-fluoro(4-methyl-4H-1,2,4-triazol-3-yl)methyl)oxetan-3-yl)phenyl)-4-(trifluoromethyl)isoindolin-1-one]
IC50 (Cbl-b): 0.035 µM
IC50 (c-Cbl): 0.052 µM
(fold-selectivity) (c-Cbl): 1.5x

CC(C)[C@H]1CN(C)CCN1Cc1cc2c(c(C(F)(F)F)c1)CN(c1cc(C3(Cc4nncn4C)CCC3)cc(NC(=O)CCl)n1)C2=O [Compound 333, (S)-2-chloro-N-(6-(6-((2-isopropyl-4-methylpiperazin-1-yl)methyl)-1-oxo-4-(trifluoromethyl)isoindolin-2-yl)-4-(1-((4-methyl-4H-1,2,4-triazol-3-yl)methyl)cyclobutyl)pyridin-2-yl)acetamide]
IC50 (Cbl-b): 0.052 µM
IC50 (c-Cbl): 0.053 µM
(fold-selectivity) (c-Cbl): (1.0x)

CC(C)[C@H]1CN(C)CCN1Cc1cc2c(c(C(F)(F)F)c1)CN(c1cccc(C3([C@@H](F)c4nncn4C4CC4)COC3)c1)C2=O [Compound 486, 2-(3-(3-((R)-(4-cyclopropyl-4H-1,2,4-triazol-3-yl)fluoromethyl)oxetan-3-yl)phenyl)-6-(((S)-2-isopropyl-4-methylpiperazin-1-yl)methyl)-4-(trifluoromethyl)isoindolin-1-one]
IC50 (Cbl-b): 0.077 µM
IC50 (c-Cbl): 0.093 µM
(fold-selectivity) (c-Cbl): (1.2x)

CC(C)[C@H]1CN(C)CCN1Cc1cc2c(c(C(F)(F)F)c1)CN(c1cccc([C@]3([C@@H](F)c4nncn4C)CCO3)c1)C2=O (single isomer, unassigned) [Compound 261]
IC50 (Cbl-b): 0.14 µM
IC50 (c-Cbl): 0.15 µM
(fold-selectivity) (c-Cbl): (1.1x)

Cc1ncnn1CC1(c2cccc(N3Cc4c(cc(CN5CCN(C)C[C@@H]5C(C)C)cc4C(F)(F)F)C3=O)c2)COC1 [Compound 254, (S)-6-((2-isopropyl-4-methylpiperazin-1-yl)methyl)-2-(3-(3-((5-methyl-1H-1,2,4-triazol-1-yl)methyl)oxetan-3-yl)phenyl)-4-(trifluoromethyl)isoindolin-1-one]
IC50 (Cbl-b): 2.4 µM
IC50 (c-Cbl): 3.2 µM
(fold-selectivity) (c-Cbl): (1.4x)

Cn1cnnc1[C@@H](F)C1(c2cccc(N3Cc4c(cc(CN5CC(C)(CO)C5)cc4C(F)(F)F)C3=O)c2)COC1 [Compound 75, (S)-2-(3-(3-(fluoro(4-methyl-4H-1,2,4-triazol-3-yl)methyl)oxetan-3-yl)phenyl)-6((3-(hydroxymethyl)-3-methylazetidin-1-yl)methyl)-4-(trifluoromethyl)isoindolin-1-one]
IC50 (Cbl-b): 0.25 µM
IC50 (c-Cbl): 0.58 µM
(fold-selectivity) (c-Cbl): 2.3x

Cn1cnnc1[C@H](F)C1(c2cccc(N3Cc4c(cc(CN5CC(C)(CO)C5)cc4C(F)(F)F)C3=O)c2)CC1 [Compound 126, (R)-2-(3-(1-(fluoro(4-methyl-4H-1,2,4-triazol-3-yl)methyl)cyclopropyl)phenyl)-6((3-(hydroxymethyl)-3-methylazetidin-1-yl)methyl)-4-(trifluoromethyl)isoindolin-1-one]
IC50 (Cbl-b): 0.064 µM
IC50 (c-Cbl): 0.093 µM
(fold-selectivity) (c-Cbl): 1.5x

CC(NCc1cc2c(c(C(F)(F)F)c1)CN(c1cccc(C3(Cc4nncn4C)CC(F)(F)C3)c1)C2=O)C1CC1 (centres unmarked) [Compound 319, 6-(((1-cyclopropylethyl)amino)methyl)-2-(3-(3,3-difluoro-1-((4-methyl-4H-1,2,4-triazol-3-yl)methyl)cyclobutyl)phenyl)-4-(trifluoromethyl)isoindolin-1-one formate]
IC50 (Cbl-b): 0.014 µM
IC50 (c-Cbl): 0.016 µM

CN(CCC(C)(C)O)Cc1cc2c(c(C(F)(F)F)c1)CN(c1cccc(C3([C@H](F)c4nncn4C)COC3)c1)C2=O [Compound 158, (S)-2-(3-(3-(fluoro(4-methyl-4H-1,2,4-triazol-3-yl)methyl)oxetan-3-yl)phenyl)-6-(((3-hydroxy-3-methylbutyl)(methyl)amino)methyl)-4-(trifluoromethyl)isoindolin-1-one]
IC50 (Cbl-b): 0.27 µM
IC50 (c-Cbl): 0.28 µM
(fold-selectivity) (c-Cbl): 1.0x

CC(C)[C@H]1CN(C)CCN1Cc1cc2c(c(C(F)(F)F)c1)CN(c1cccc(C3([C@H](F)c4nncn4C(F)F)COC3)c1)C2=O [Compound 268, 2-(3-(3-((S)-(4-(difluoromethyl)-4H-1,2,4-triazol-3-yl)fluoromethyl)oxetan-3-yl)phenyl)-6-(((S)-2-isopropyl-4-methylpiperazin-1-yl)methyl)-4-(trifluoromethyl)isoindolin-1-one]
IC50 (Cbl-b): 0.016 µM
IC50 (c-Cbl): 0.011 µM
(fold-selectivity) (c-Cbl): (0.68x)
